Assay results reported in publication PMC6104490, “NADPH–Cytochrome P450 Reductase Mediates the Resistance of Aphis (Toxoptera) citricidus (Kirkaldy) to Abamectin” (Frontiers in Physiology, 2018).

Target: T1, AcCPR (Aphis citricidus, UniProt A0A346QRP0)
T1 construct: full-length ORF in pFastBac HT A, 6xHis-tagged, Sf9 cell extract (soluble supernatant; called microsomes in results)
T1 sequence (A0A346QRP0 1-681): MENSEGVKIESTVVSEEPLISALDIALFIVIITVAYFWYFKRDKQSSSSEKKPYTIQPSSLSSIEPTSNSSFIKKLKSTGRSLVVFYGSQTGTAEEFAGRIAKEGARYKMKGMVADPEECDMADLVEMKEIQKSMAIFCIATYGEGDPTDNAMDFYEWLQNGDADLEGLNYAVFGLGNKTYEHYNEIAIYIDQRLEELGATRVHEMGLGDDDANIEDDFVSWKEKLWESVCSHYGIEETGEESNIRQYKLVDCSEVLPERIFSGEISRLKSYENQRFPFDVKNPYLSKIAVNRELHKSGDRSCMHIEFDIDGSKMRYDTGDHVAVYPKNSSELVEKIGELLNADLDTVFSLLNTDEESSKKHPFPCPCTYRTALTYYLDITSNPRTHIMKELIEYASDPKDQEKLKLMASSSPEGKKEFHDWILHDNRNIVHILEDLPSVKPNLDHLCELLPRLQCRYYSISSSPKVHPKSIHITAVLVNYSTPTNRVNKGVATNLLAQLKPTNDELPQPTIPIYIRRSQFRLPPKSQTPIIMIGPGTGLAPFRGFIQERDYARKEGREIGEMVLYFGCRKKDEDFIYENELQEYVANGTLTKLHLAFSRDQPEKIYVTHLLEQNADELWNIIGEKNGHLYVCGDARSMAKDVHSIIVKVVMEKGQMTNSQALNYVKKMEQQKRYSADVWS
Assay: NADPH-cytochrome c reduction, absorbance at […] nm, Sf9 cell extract
Format: biochemical
Settings: cytochrome c as electron acceptor, 0.3 M potassium phosphate pH 7.7; NADPH 2 uL of 10 mM stock in 200 uL

NC(=O)C1=CN([C@@H]2O[C@H](COP(=O)(O)OP(=O)(O)OC[C@H]3O[C@@H](n4cnc5c(N)ncnc54)[C@H](OP(=O)(O)O)[C@@H]3O)[C@@H](O)[C@H]2O)C=CC1 [NADPH]
NADPH-cytochrome c reduction, absorbance at 550 nm, Sf9 cell extract: Heterologously expressed AcCPR activity was determined by spectrophotometric measurement of the activity of NADPH-cytochrome-c reduction
